What was measured:
[1] = biological target: T1, human recombinant dopamine D4.2 receptor (Homo sapiens, UniProt P21917, DEL265-296); test: Measurement of affinity for dopamine D4 receptor ([3H]YM-09151-2 binding); settings: [3H]YM-09151-2 0.1 nM, receptor expressed in CHO-K1 cells, 120 min at 25° C.
T1 construct: purchased PerkinElmer Life and Analytical Sciences, USA; host or cells: CHO-K1 cells
T1 sequence (P21917 with tags, fused parts or gaps DEL265-296): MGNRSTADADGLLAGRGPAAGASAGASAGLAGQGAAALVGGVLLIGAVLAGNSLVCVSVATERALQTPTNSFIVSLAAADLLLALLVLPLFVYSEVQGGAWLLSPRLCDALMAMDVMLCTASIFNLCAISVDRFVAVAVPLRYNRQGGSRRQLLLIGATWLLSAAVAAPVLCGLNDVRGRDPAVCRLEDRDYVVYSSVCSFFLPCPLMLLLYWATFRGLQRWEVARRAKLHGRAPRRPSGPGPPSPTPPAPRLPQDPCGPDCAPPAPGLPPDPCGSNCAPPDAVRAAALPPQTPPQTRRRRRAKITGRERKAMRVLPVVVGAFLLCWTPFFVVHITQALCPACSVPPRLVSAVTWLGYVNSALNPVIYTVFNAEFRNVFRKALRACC
Method: The affinities of the compounds for dopamine D4 receptor were measured by using human recombinant dopamine D4.2 receptor (PerkinElmer Life and Analytical Sciences, USA) expressed in CHO-K1 cells, and [^3H]YM-09151-2 (PerkinElmer) was used as a radioactive ligand.
50 mM Tris-HCl (pH 7.4) containing 120 mM NaCl, 5 mM KCl, 5 mM MgCl2 and 1 mM EDTA was used as a buffer solution for the analysis of receptor binding. [^3H] YM-09151-2 binding reactions were performed in a 96-well plate format.
For drug screening, a reaction mixture with a final volume of 0.25 mL was prepared by mixing a compound of the present invention, D4 receptor membrane (43 μg/well), [^3H] YM-09151-2 (0.1 nM), 50 mM Tris-HCl (pH 7.4) and the like. The reaction mixture was incubated for 120 min at 25° C., and then promptly passed through Wallac GF/C glass fiber filter (Wallac, Finland), which was already wetted in 0.5% PEI, by using Inotech harvester (Inotech) to terminate the reaction, and then washed with cold 50 mM Tris-HCl buffer solution. The filter was then covered with MeltiLex, sealed in a sample bag, and then dried in an oven. The radioactivity retained in the filter was finally counted using MicroBeta Plus, Wallac.
The affinity (IC50) of a compound for the receptor was calculated via nonlinear regression analysis of sigmoidal dose-response equation with the data obtained from three independent experiments (GraphPad Prism Program, San Diego, USA), which are carried out using 7-8 different concentrations of the compound in duplicate. Nonspecific binding was measured in the presence of 10 μM clozapine.

[2] = biological target: T2, Human recombinant dopamine D3 receptor (Homo sapiens, UniProt P35462); test: Measurement of affinity for dopamine D3 receptor ([3H]spiperone binding); settings: [3H]spiperone 0.8 nM, CHO cell line, 60 min at 27° C.
T2 construct: purchased Euroscreen; host or cells: CHO cell line
Method: Human recombinant dopamine D2 and D3 receptors, which were expressed in CHO cell lines, respectively, were purchased from PerkinElmer and Euroscreen, respectively.
50 mM Tris-HCl (pH 7.4) containing […] and 1 mM EDTA was used as a buffer solution for the measurement of affinity for dopamine D2 receptor. 50 mM Tris-HCl (pH 7.4) containing 5 mM MgCl2, 5 mM EDTA, 5 mM KCl, 1.5 mM CaCl2 and 120 mM NaCl was used as a buffer solution for the measurement of affinity for dopamine D3 receptor. For measurement of non-specific binding, 10 μM haloperidol (haloperidol) was used.

[3] = tested on: rotarod deficit in mice; test: Rotarod deficit in mice; assay type: in vivo; settings: for Rotarod deficit TD50 (mg/kg, ip): mice, rod rotating at 6 rpm, 30-120 min after administration; for rotarod deficit TD50 as times of ED50 for antipsychotic efficacy: mouse, in vivo, ip
Method: (§1) Each mouse was administered with a test drug, and then placed on a 1 inch diameter knurled plastic rod rotating at 6 rpm (Ugo-Basile, Milano, Italy), and the rotarod deficit (%) was obtained by counting the number of mice fallen from the rotating rod within 1 min at 30, 60, 90, and 120 min after the administration of the drug.

[4] = Rotarod deficit in mice; assay type: in vivo; settings: mouse, in vivo, ip, mice, rod rotating at 6 rpm, 30-120 min after administration
Method: as §1

[5] = biological target: 5-HT2A receptor (Homo sapiens, UniProt P28223); test: Serotonin receptor binding experiment, 5-HT2A; parameters: species or system human or rat; settings: [3H]ketanserin 1 nM, 15 min at 37° C.; read-out: Receptor affinity (IC50, nM) 5-HT2A
Method: The measurement of affinity for serotonin 5-HT receptor family was performed according to the experimental conditions as specified in Table 2 below using the method same as in Experimental Example 1 above.

T2 sequence (P35462 whole entry): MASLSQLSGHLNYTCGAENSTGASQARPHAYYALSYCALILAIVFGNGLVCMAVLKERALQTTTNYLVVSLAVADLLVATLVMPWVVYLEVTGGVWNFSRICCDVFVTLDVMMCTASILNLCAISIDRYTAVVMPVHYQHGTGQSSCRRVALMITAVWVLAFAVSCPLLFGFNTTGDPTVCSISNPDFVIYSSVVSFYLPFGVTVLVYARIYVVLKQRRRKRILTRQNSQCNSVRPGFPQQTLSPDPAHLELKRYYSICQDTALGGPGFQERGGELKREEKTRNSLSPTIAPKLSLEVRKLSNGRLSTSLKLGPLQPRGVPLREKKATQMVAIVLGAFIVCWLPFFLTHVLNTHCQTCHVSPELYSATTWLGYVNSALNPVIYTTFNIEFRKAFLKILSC
Chain of 5-HT2A receptor (P28223 whole entry): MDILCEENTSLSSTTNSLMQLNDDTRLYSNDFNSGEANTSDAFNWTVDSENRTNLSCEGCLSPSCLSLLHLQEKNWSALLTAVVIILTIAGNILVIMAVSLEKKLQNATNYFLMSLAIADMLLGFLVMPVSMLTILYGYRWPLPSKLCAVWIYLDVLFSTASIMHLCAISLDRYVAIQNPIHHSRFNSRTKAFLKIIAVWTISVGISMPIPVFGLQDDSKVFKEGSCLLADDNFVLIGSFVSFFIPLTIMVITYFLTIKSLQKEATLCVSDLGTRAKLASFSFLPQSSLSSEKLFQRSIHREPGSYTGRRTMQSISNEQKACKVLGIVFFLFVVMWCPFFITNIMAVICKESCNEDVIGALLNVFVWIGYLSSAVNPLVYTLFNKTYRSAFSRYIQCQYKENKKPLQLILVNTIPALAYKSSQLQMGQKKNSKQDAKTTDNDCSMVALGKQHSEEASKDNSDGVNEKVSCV

Structure (SMILES)	IC50 [1] [nM]	IC50 [2] [nM]	Rotarod deficit TD50 (mg/kg, ip) [3] [mg/kg]	rotarod deficit TD50 as times of ED50 for antipsychotic efficacy [3]	TD50 [4] [mg/kg]	IC50 [5] [nM]
CCCc1cc(CCCN2CCN(c3ccccc3F)CC2)n(-c2ccccc2)n1 [Compound 156, 1-(2-fluorophenyl)-4-(3-(1-phenyl-3-propyl-1H-pyrazol-5-yl)propyl)piperazine]	3.5	87	26.0	2.2-5 times	20 to 50	152
CCCc1cc(CCCN2CCN(c3ccccc3)CC2)n(-c2ccccc2)n1 [Compound 155, 1-phenyl-4-(3-(1-phenyl-3-propyl-1H-pyrazol-5-yl)propyl)piperazine]	5.9	461	28.5	2.2-5 times	20 to 50	35
CCCc1cc(CCCN2CCN(c3ccc(C)c(C)c3)CC2)n(-c2ccccc2)n1 [Compound 159, 1-(3,4-dimethylphenyl)-4-(3-(1-phenyl-3-propyl-1H-pyrazol-5-yl)propyl)piperazine]	1.3	131	35.3	2.2-5 times	20 to 50	8
CC(C)c1cc(CCCN2CCN(c3ccccc3F)CC2)n(-c2ccccc2)n1 [Compound 177, 1-(2-fluorophenyl)-4-(3-(1-phenyl-3-isopropyl-1H-pyrazol-5-yl)propyl)piperazine]	8	687	19.4	2.2-5 times	20 to 50	27
CCCc1cc(CCCN2CCN(c3cccc(C)c3C)CC2)n(-c2ccccc2)n1 [Compound 160, 1-(2,3-dimethylphenyl)-4-(3-(1-phenyl-3-propyl-1H-pyrazol-5-yl)propyl)piperazine]	2.9	229	24.6	2.2-5 times	20 to 50	65

Source: patent US8372844B2, “Piperazinyl-propyl-pyrazole derivatives as dopamine D4 receptor antagonists, and pharmaceutical compositions containing the same” (Korea Research Institute of Chemical Technology, priority 2007, dated 2013)
